Results as given in patent publication US7041694B1, “Cyclooxygenase-2 inhibition” (Cornell Research Foundation, Inc., priority 1997, dated 2006).

Key:
[1] = tested on: patient with alcoholic hepatitis; assay: Treatment of a patient with alcoholic hepatitis (Example I); format: in vivo; settings: 6 mg/kg oral, daily; at the end of three weeks
Method: A patient with alcoholic hepatitis is admitted to a hospital complaining of nausea and upper abdominal pain. Liver function test results are total bilirubin of 4.0 mg/dl, direct bilirubin of 3.1 mg/dl, ALT of 100 IU/L, AST of 120 IU/L and prothrombin time of 15.1 seconds.
At the end of three weeks, the nausea and upper abdominal pain have resolved. Each of the blood tests has improved.

[2] = tested on: patient with autoimmune hepatitis; assay: Treatment of a patient with autoimmune hepatitis (Example II); format: in vivo; settings: 6 mg/kg oral for two months
Method: The patient is a person with new onset nausea, loss of appetite and right upper quadrant tenderness. They are noted to have elevated liver chemistries. Serologic workup is notable for positive antinuclear and antismooth muscle antibodies. They are considered to have autoimmune hepatitis. Liver biopsy is consistent with this diagnosis. […] The patient is subsequently maintained on an oral dose of 6 mg/kg of the same drug.

SMILES | blood tests (liver function tests: total bilirubin, direct bilirubin, ALT, AST, prothrombin time) [1] | nausea and upper abdominal pain [1] | symptoms (nausea, loss of appetite, right upper quadrant tenderness) [2]
Cc1ccc(-c2cc(C(F)(F)F)nn2-c2ccc(S(N)(=O)=O)cc2)cc1 [4-[5-(4-Methylphenyl)-3-(trifluoromethyl)-1H-pyrazol-1-yl]benzenesulfonamide] | same result | – | –
NS(=O)(=O)c1ccc(-n2nc(C(F)(F)F)cc2-c2ccc(Cl)cc2)cc1 [4-[5-(4-Chlorophenyl)-3-(trifluoromethyl)-1H-pyrazol-1-yl]benzenesulfonamide] | improved | resolved | resolution of symptoms
